# Key:
# [1] = molecular target: D(1A) dopamine receptor (Homo sapiens) (UniProt P21728); assay: Binding affinity to dopamine D1 receptor (unknown origin)
# [2] = molecular target: D(1A) dopamine receptor (Rattus norvegicus) (UniProt P18901)
# Description: Binding affinity to dopamine D1 receptor in Rattus norvegicus (rat) brain
# [3] = Half life in Rattus norvegicus (rat) plasma; assay type: ADME, cell-free
# Sequence of D(1A) dopamine receptor (Homo sapiens) (P21728 whole entry): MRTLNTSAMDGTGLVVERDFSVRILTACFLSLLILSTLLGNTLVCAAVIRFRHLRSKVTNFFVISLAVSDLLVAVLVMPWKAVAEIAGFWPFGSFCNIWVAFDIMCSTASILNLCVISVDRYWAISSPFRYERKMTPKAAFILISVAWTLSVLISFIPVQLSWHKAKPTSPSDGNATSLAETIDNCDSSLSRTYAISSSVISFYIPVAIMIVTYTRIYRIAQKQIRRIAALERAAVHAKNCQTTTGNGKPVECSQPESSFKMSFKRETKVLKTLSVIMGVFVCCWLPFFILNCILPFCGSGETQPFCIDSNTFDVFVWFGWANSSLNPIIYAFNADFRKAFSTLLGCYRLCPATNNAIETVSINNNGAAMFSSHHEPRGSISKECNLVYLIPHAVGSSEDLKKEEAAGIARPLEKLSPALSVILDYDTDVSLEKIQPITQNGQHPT
# Sequence of D(1A) dopamine receptor (Rattus norvegicus) (P18901 whole entry): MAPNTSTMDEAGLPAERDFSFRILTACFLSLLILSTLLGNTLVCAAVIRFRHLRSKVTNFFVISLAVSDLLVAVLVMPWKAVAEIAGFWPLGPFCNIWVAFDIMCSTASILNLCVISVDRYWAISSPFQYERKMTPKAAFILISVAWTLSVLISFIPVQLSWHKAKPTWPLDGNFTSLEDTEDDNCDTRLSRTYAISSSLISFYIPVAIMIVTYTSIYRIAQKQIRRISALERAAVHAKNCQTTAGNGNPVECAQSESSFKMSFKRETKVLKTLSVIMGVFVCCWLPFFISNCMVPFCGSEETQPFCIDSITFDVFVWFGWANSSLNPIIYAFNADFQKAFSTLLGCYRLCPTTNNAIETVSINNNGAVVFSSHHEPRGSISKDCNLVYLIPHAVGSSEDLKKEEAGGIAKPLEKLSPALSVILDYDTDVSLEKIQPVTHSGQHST
SMILES,K0.5 [1] [nM],also measured
NC[C@@H]1O[C@H](C23CC4CC(CC(C4)C2)C3)Cc2c1ccc(O)c2O,1,–
Oc1cc2c(cc1O)[C@H]1c3ccccc3CN[C@@H]1CC2,–,K0.5 [2]: 5 nM
CCCc1cc2c(s1)CN[C@@H]1CCc3cc(O)c(O)cc3[C@@H]21 (relative stereo),1,–
NC[C@@H]1O[C@H](c2ccccc2)Cc2c1ccc(O)c2O (relative stereo),1,–
CCCc1cc2c(s1)CN[C@@H]1CCc3cc(OC(C)=O)c(OC(C)=O)cc3[C@@H]21.Cl (relative stereo) [ADROGOLIDE HYDROCHLORIDE],–,half-life [3]: 1 min

# Source: ChEMBL document CHEMBL3044583, “Mechanisms and Issues Relating to the Use of D1-like Dopamine Receptor Agonists for Age-related Illnesses: Parkinson?s Disease and Memory and Cognition” (Med Chem Res, 2004)
